Three compounds from ChEMBL document CHEMBL3627608, “Crystal structures of human RIP2 kinase catalytic domain complexed with ATP-competitive inhibitors: Foundations for understanding inhibitor selectivity” (Bioorg Med Chem, 2015) can be followed below.

For assay [1], the target named is T1, Ephrin type-A receptor 8 (Homo sapiens) (UniProt P29322).
T1 sequence (whole entry): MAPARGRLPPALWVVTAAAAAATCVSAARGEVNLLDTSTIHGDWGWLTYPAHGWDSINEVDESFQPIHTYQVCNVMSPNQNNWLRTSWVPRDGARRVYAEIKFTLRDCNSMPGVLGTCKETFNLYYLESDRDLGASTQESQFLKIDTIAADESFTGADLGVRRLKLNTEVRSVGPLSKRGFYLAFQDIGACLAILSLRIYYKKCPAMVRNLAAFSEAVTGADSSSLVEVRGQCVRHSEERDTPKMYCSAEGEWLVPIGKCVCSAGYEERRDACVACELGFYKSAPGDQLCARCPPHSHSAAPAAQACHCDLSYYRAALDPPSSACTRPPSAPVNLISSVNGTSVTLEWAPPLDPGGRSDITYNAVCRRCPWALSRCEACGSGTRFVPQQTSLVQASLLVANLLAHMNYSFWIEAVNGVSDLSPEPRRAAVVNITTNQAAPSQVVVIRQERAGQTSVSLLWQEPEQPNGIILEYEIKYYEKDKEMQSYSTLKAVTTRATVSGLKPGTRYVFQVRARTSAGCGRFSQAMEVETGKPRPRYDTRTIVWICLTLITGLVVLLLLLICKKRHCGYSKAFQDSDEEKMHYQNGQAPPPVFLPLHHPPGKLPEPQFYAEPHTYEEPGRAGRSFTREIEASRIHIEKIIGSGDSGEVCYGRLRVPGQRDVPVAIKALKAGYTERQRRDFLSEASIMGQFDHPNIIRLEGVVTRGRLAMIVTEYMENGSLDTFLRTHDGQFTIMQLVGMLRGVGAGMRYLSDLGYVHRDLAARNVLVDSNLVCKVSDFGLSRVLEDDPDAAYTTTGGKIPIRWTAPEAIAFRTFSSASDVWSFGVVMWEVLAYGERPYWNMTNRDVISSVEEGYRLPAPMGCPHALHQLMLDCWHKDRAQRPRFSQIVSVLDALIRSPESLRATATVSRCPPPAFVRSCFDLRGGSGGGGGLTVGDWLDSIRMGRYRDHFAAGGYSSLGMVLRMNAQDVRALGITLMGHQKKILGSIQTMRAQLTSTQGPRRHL
Kind of assay: Inhibition of EPHA8 (unknown origin) at 10 uM after 120 mins P33 radiolabeled kinase activity assay.

Assay [2] deals with T2, Ephrin type-B receptor 3 (Homo sapiens) (UniProt P54753).
T2 sequence (whole entry): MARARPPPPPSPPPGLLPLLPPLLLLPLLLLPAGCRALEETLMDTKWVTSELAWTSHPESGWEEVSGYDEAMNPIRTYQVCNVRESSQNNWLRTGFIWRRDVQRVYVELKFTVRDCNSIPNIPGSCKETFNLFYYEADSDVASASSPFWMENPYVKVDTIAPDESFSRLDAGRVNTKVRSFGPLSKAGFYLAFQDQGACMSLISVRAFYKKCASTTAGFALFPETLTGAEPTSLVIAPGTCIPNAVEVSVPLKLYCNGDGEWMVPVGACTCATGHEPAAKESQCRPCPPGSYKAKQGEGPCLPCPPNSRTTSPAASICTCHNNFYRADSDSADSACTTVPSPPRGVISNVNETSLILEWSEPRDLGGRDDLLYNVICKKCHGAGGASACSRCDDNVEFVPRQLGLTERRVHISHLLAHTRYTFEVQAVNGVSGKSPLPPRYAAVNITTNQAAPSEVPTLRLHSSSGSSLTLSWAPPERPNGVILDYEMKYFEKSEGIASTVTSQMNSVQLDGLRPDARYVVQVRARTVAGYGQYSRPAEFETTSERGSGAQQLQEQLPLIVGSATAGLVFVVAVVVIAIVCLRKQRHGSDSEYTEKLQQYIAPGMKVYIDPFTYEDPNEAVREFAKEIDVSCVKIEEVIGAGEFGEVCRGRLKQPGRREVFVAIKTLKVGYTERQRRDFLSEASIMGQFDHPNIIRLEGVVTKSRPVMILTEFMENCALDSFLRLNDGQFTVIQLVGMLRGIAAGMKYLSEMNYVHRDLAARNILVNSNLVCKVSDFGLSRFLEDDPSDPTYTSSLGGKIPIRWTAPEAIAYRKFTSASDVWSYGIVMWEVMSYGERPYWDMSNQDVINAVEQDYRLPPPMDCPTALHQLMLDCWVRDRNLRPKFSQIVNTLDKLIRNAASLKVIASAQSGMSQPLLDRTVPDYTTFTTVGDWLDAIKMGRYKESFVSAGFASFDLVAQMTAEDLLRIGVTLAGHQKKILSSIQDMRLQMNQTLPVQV
As to the kind of experiment: Inhibition of EPHB3 (unknown origin) at 10 uM after 120 mins P33 radiolabeled kinase activity assay.

Assay [3] concerns the target T3, Mitogen-activated protein kinase 12 (Homo sapiens) (UniProt P53778).
T3 sequence (whole entry): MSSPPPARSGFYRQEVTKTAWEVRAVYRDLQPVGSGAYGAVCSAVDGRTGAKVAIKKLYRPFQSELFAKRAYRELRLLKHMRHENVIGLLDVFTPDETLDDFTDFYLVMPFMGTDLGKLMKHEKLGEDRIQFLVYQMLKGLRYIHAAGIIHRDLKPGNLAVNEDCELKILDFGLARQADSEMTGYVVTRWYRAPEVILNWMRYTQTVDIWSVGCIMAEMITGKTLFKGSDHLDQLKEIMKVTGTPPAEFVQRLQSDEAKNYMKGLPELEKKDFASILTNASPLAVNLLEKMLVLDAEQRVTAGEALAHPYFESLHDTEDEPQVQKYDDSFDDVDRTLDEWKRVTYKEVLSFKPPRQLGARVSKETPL
As to the kind of experiment: Inhibition of P38gamma (unknown origin) at 10 uM after 120 mins P33 radiolabeled kinase activity assay.

In assay [4] the target is Receptor-interacting serine/threonine-protein kinase 3 (Homo sapiens) (UniProt Q9Y572). As to the kind of experiment: Inhibition of RIPK3 (unknown origin) at 10 uM after 120 mins P33 radiolabeled kinase activity assay.
Receptor-interacting serine/threonine-protein kinase 3 (Homo sapiens), sequence (Q9Y572 whole entry, looked up): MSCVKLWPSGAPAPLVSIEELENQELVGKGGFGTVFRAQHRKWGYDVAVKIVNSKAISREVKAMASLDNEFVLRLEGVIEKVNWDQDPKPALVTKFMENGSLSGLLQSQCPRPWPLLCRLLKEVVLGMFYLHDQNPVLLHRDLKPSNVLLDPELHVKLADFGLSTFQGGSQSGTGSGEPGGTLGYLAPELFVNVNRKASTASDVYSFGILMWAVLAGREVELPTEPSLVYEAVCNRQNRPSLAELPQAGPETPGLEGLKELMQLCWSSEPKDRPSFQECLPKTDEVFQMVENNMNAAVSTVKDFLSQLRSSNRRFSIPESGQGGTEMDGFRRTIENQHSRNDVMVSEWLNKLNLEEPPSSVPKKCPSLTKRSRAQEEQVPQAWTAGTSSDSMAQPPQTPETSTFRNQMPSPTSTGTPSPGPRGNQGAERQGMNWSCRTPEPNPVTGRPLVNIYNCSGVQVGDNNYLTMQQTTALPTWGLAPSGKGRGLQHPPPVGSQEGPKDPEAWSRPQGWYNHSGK

Each structure is given as a SMILES string.

Usually inhibition stands for the drop in the measured response relative to a control, in per cent.

As for `COCCNC(=O)c1ccc2c(c1)nc(-c1cnc(-c3ccc(Cl)cc3)[nH]1)n2CCOC`, the inhibition in assay [1] is 12.2%; in assay [2], 5.87%; in assay [3], -3.25%; in assay [4], 27.6%.

For `CC(C)(C)c1cc(NC(=O)Nc2ccc(Oc3ccncc3)cc2)no1`, the inhibition in assay [1] came to 80.5%; in assay [2], 93.3%; in assay [3], 97.4%; in assay [4] it was 81.4%.

In the case of `CS(=O)(=O)c1cccc(Nc2nccc(-c3sc(N4CCOCC4)nc3-c3cccc(NS(=O)(=O)c4c(F)cccc4F)c3)n2)c1`, the inhibition came to 74.6% in assay [1], 7.1% in assay [2], 7.45% in assay [3] and 83.1% in assay [4].
